Calls of active or inactive are those of the source. The calls are words filed in the database; no cut-off is given here.
Columns and labels:
[1] = molecular target: T1, 5-hydroxytryptamine receptor 2C (Homo sapiens, UniProt P28335); assay: Displacement of [3H]mesulergine from 5HT2C receptor expressed in HEK293 cells; type: cell-based
T1 sequence (P28335 whole entry): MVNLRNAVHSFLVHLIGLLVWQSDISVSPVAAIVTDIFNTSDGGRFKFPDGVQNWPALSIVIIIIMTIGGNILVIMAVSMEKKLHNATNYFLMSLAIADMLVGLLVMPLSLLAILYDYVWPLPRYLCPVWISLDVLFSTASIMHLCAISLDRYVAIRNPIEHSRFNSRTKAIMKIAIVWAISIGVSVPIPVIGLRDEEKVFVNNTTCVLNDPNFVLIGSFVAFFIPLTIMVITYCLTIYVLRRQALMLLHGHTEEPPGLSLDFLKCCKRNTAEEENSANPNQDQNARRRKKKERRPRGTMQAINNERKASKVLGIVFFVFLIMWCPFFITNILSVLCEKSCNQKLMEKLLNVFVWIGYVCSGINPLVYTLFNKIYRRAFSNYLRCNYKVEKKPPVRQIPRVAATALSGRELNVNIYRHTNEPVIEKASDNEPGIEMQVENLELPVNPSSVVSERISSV

[2] = molecular target: T2, 5-hydroxytryptamine receptor 2A (Homo sapiens, UniProt P28223); assay: Displacement of [3H]ketanserin from 5HT2A receptor expressed in HEK293 cells; type: cell-based
[3] = molecular target: T3, 5-hydroxytryptamine receptor 2B (Homo sapiens, UniProt P41595); assay: Displacement of [3H]5-HT from 5HT2B receptor expressed in HEK293 cells; type: cell-based
[4] = molecular target: T4, 5-hydroxytryptamine receptor 2C (Homo sapiens) (UniProt P28335); assay: Agonist activity at 5HT2C receptor expressed in HEK293 cells assessed as intracellular calcium mobilisation up to 10 uM; type: functional, cell-based
T4 sequence (whole entry): T1 sequence (P28335 whole entry)

[5] = molecular target: T2, 5-hydroxytryptamine receptor 2A; assay: Agonist activity at 5HT2A receptor expressed in HEK293 cells assessed as intracellular calcium mobilisation up to 10 uM; type: functional, cell-based
[6] = molecular target: T3, 5-hydroxytryptamine receptor 2B; assay: Agonist activity at 5HT2B receptor expressed in HEK293 cells assessed as intracellular calcium mobilisation up to 10 uM; type: functional, cell-based
[7] = molecular target: T4, 5-hydroxytryptamine receptor 2C (Homo sapiens); assay: Antagonist activity at 5HT2C receptor expressed in HEK293 cells assessed as blockade of 5-hydroxytryptamine-induced intracellular calcium mobilisation; type: functional, cell-based
[8] = Blood clearance in iv dosed rat; type: ADME, organism-based; details: whole blood
[9] = Volume of distribution in iv dosed rat; type: ADME, organism-based; details: in vivo, read-out: Vdss
[10] = Oral bioavailability in po dosed rat; type: ADME, organism-based; details: in vivo

T3 sequence (P41595 whole entry): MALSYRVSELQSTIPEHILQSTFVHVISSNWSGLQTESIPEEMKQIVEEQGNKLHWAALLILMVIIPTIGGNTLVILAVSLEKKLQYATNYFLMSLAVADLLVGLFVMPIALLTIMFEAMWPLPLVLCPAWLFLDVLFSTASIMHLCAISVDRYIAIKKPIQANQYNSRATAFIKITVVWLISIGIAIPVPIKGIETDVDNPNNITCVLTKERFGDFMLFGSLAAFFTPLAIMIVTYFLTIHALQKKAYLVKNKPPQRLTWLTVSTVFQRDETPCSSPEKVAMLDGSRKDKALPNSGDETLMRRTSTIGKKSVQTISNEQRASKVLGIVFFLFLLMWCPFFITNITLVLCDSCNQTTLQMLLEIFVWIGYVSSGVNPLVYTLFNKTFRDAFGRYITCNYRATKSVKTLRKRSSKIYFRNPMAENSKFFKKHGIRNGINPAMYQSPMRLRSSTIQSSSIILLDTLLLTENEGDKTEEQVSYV
T2 sequence (P28223 whole entry): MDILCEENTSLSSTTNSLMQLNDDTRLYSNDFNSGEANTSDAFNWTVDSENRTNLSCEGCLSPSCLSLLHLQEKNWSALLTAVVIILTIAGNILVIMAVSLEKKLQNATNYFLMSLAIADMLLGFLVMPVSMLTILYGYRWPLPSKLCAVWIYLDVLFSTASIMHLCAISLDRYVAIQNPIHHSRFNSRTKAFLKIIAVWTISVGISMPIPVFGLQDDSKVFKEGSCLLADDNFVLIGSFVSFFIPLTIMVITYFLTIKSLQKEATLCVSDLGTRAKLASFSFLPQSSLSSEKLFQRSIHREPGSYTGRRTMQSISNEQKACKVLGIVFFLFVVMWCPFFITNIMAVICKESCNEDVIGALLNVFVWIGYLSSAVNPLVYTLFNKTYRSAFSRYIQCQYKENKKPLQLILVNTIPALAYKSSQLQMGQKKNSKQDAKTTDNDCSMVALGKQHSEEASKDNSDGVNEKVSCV

Compound	Ki [1]	Ki [2]	Ki [3]	Activity [4]	Activity [5]	Activity [6]	pKb [7]	clearance [8]	Vd [9]	bioavailability [10]	Log Ki ([3]; hek293)
COc1ccc(N2Cc3cc(Cl)cc(Cl)c3C2=O)cc1OCCN1CCOCC1	12.6 nM	> 7940 nM	> 1000 nM	inactive	inactive	inactive	–	–	–	–	–
COc1ccc(N2Cc3cc(Cl)cc(Cl)c3C2=O)cc1OCCN1CCCC(C)C1 (stereo unspecified)	2.51 nM	> 1260 nM	126 nM	inactive	inactive	inactive	–	–	–	–	–
COc1ccc(N2Cc3cccc(Br)c3C2=O)cc1OCCN1CCC(C)CC1	0.794 nM	631 nM	158 nM	inactive	inactive	inactive	9.3	–	–	–	–
COc1ccc(N2Cc3cc(Cl)cc(Cl)c3C2=O)cc1OCCN1CCC(C)CC1	1.58 nM	398 nM	200 nM	inactive	inactive	inactive	8.8	50 mL/min/kg	5.8 L/kg	–	–
COc1ccc(N2Cc3cccc(Cl)c3C2=O)cc1OCCN1CCCCC1	3.98 nM	1000 nM	316 nM	inactive	inactive	inactive	–	–	–	–	–
COc1ccc(N2Cc3c(F)c(F)cc(Cl)c3C2=O)cc1OCCN1CCC(C)CC1	2 nM	501 nM	126 nM	inactive	inactive	inactive	–	–	–	–	–
COc1ccc(N2Cc3cc(F)cc(C(F)(F)F)c3C2=O)cc1OCCN1CCC(C)CC1	0.398 nM	251 nM	251 nM	inactive	inactive	inactive	–	–	–	–	–
COc1ccc(N2Cc3cccc(Cl)c3C2=O)cc1OCCN1CCC(C)CC1	1.58 nM	794 nM	126 nM	inactive	inactive	inactive	8.7	–	–	–	–
COc1ccc(N2Cc3cc(Cl)ccc3C2=O)cc1OCCN1CCC(C)CC1	25.1 nM	> 1000 nM	> 1000 nM	inactive	inactive	inactive	–	–	–	–	–
COc1ccc(N2Cc3c(F)ccc(C(F)(F)F)c3C2=O)cc1OCCN1CCC(C)CC1	6.31 nM	> 1000 nM	> 1000 nM	inactive	inactive	inactive	–	48 mL/min/kg	1.9 L/kg	4%	–
COc1ccc(N2Cc3ccc(Cl)c(Cl)c3C2=O)cc1OCCN1CCC(C)CC1	1 nM	501 nM	100 nM	inactive	inactive	inactive	–	–	–	–	–
COc1ccc(N2Cc3cc(Cl)cc(Cl)c3C2=O)cc1OCCN1CCC(C)(C)CC1	2 nM	398 nM	251 nM	inactive	inactive	inactive	–	–	–	–	–
COc1ccc(N2Cc3cccc(C(F)(F)F)c3C2=O)cc1OCCN1CCC(C)CC1	1.58 nM	631 nM	501 nM	inactive	inactive	inactive	–	–	–	–	–
COc1ccc(N2Cc3cc(Cl)cc(Cl)c3C2=O)cc1OCCN1CCCCC1C (stereo unspecified)	10 nM	> 3980 nM	> 2510 nM	inactive	inactive	inactive	–	–	–	–	–
COc1ccc(N2Cc3cc(C)cc(C)c3C2=N)cc1OCCN1CCC(C)CC1	126 nM	> 3980 nM	> 3160 nM	inactive	inactive	inactive	–	–	–	–	–
COc1ccc(N2Cc3cccc(C)c3C2=O)cc1OCCN1CCC(C)CC1	2.51 nM	> 6310 nM	200 nM	inactive	inactive	inactive	–	–	–	–	–
COc1ccc(N2Cc3ccc(Cl)cc3C2=O)cc1OCCN1CCCCC1	15.8 nM	> 2510 nM	> 1580 nM	inactive	inactive	inactive	7.2	–	–	–	–
COc1ccc(N2Cc3c(c4cc(Cl)ccc4n3C)C2=O)cc1OCCN1CCC(C)CC1	–	–	–	inactive	inactive	inactive	–	–	–	–	–

Compound	Ki [1]	Ki [2]	Ki [3]	Activity [4]	Activity [5]	Activity [6]	pKb [7]	clearance [8]	Vd [9]	bioavailability [10]	Log Ki ([3]; hek293)
COc1ccc(N2Cc3cc(Cl)cc(Cl)c3C2=O)cc1OCCN1[C@H](C)CCC[C@@H]1C	6.31 nM	316 nM	126 nM	inactive	inactive	inactive	–	–	–	–	–
COc1ccc(N2Cc3cc(Cl)c(Cl)cc3C2=O)cc1OCCN1CCC(C)CC1	5.01 nM	501 nM	200 nM	inactive	inactive	inactive	–	16 mL/min/kg	8.5 L/kg	22%	–
COc1ccc(N2Cc3cccc(F)c3C2=O)cc1OCCN1CCCCC1	79.4 nM	> 10000 nM	> 3160 nM	inactive	inactive	inactive	–	–	–	–	–
COc1ccc(N2Cc3cc(Cl)cc(Cl)c3C2=O)cc1OCCN1CCCCCC1	2.51 nM	631 nM	200 nM	inactive	inactive	inactive	–	–	–	–	–
COc1ccc(N2Cc3ccccc3C2=O)cc1OCCN1CCCCC1	50.1 nM	> 10000 nM	> 1580 nM	inactive	inactive	inactive	–	–	–	–	–
COc1ccc(N2Cc3cc(C)cc(C)c3C2=O)cc1OCCN1CCC(C)CC1	3.16 nM	1260 nM	316 nM	inactive	inactive	inactive	–	59 mL/min/kg	7.8 L/kg	10%	–
COc1ccc(N2Cc3c(Cl)cccc3C2=O)cc1OCCN1CCC(C)CC1	126 nM	> 1580 nM	–	inactive	inactive	inactive	–	–	–	–	> -6.7
COc1ccc(N2Cc3cccc(OC)c3C2=O)cc1OCCN1CCCCC1	200 nM	> 6310 nM	> 7940 nM	inactive	inactive	inactive	–	–	–	–	–
COc1ccc(N2Cc3cc(Cl)c(Cl)c(C)c3C2=O)cc1OCCN1CCC(C)CC1	2.51 nM	398 nM	100 nM	inactive	inactive	inactive	–	16 mL/min/kg	6.8 L/kg	43%	–
COc1ccc(N2Cc3ccc(Cl)cc3C2=O)cc1OCCN1CCC(C)CC1	20 nM	794 nM	> 1000 nM	inactive	inactive	inactive	–	–	–	–	–
COc1ccc(N2Cc3cc(Cl)c(C)c(Cl)c3C2=O)cc1OCCN1CCC(C)CC1	1.26 nM	631 nM	63.1 nM	inactive	inactive	inactive	–	43 mL/min/kg	9.1 L/kg	24%	–
COc1ccc(N2Cc3cccc(C#N)c3C2=O)cc1OCCN1CCC(C)CC1	10 nM	> 3160 nM	> 794 nM	inactive	inactive	inactive	–	–	–	–	–
COc1ccc(N2CC=C(c3ccc(Cl)c(Cl)c3)C2=O)cc1OCCN1CCC(C)CC1	–	–	–	inactive	inactive	inactive	–	–	–	–	–
CCOC(=O)c1ccc(N2Cc3ccccc3C2=O)cc1OCCN(CC)CC	–	–	–	inactive	inactive	inactive	–	–	–	–	–
COc1ccc(N2C(=O)c3c(Cl)cccc3C2C)cc1OCCN1CCC(C)CC1 (stereo unspecified)	1.26 nM	> 1260 nM	200 nM	inactive	inactive	inactive	–	53 mL/min/kg	8.2 L/kg	–	–
COc1ccc(N2Cc3cc(Cl)ccc3C2=O)cc1OCCN1CCCCC1	50.1 nM	> 6310 nM	> 10000 nM	inactive	inactive	inactive	6.9	–	–	–	–
COc1ccc(N2Cc3c(Cl)cccc3C2=O)cc1OCCN1CCCCC1	251 nM	> 7940 nM	> 794 nM	inactive	inactive	inactive	6	–	–	–	–
